Drawing on patent publication US8759332B2, “Hepatitis C virus inhibitors” (Enanta Pharmaceuticals, Inc., priority 2009, dated 2014), this text covers EC50 for 16 compounds.

By EC50 is commonly meant the midpoint of the concentration-response curve.

A value given as a limit tells only on which side of the number the result lay.

The test system of the test is HCV 1b genotype replicon. The experiment in a line: HCV replicon assay (qRT-PCR or luciferase), genotype 1b. Type of test: cell-based. The conditions noted are these: Hepatitis C virus, read-out: Genotype-1b replicon EC50 Range. The source says:
HCV replicon cell lines (kindly provided by R. Bartenschlager) isolated from colonies as described by Lohman et. al. (Lohman et al. (1999) Science 285: 110-113, expressly incorporated by reference in its entirety) and used for all experiments. The HCV replicon has the nucleic acid sequence set forth in EMBL Accession No.: AJ242651, the coding sequence of which is from nucleotides 1801 to 8406.
The coding sequence of the published HCV replicon was synthesized and subsequently assembled in a modified plasmid pBR322 (Promega, Madison, Wis.) using standard molecular biology techniques. One replicon cell line (“SGR 11-7”) stably expresses HCV replicon RNA which consists of (i) the HCV 5′UTR fused to the first 12 amino acids of the capsid protein, (ii) the neomycin phosphotransferase gene (neo), (iii) the IRES from encephalomyocarditis virus (EMCV), and (iv) HCV NS2 to NS5B genes and the HCV 3′UTR. Another replicon cell line (“Huh-luc/neo-ET”) described by Vrolijk et. al. (Vrolijk et. al. (2003) Journal of Virological Methods 110:201-209, expressly incorporated by reference in its entirety) stably expresses HCV replicon RNA which consists of (i) the HCV 5′UTR fused to the first 12 amino acids of the capsid protein, (ii) the firefly luciferase reporter gene, (iii) the ubiquitin gene, (iv) the neomycin phosphotransferase gene (neo), (v) the IRES from encephalomyocarditis virus (EMCV), and (vi) HCV NS3 to NS5B genes that harbor cell culture adaptive mutations (E1202G, T12801, K1846T) and the HCV 3′UTR.
These cell lines were maintained at 37° C., 5% CO2, 100% relative humidity in DMEM (Cat#11965-084, Invitrogen), with 10% fetal calf serum (“FCS”, Invitrogen), 1% non-essential amino acids (Invitrogen), 1% of Glutamax (Invitrogen), 1% of 100× penicillin/streptomycin (Cat#15140-122, Invitrogen) and Geneticin (Cat#10131-027, Invitrogen) at 0.75 mg/ml or 0.5 mg/ml for 11-7 and Huh-luc/neo-ET cells, respectively.
EC50 values of single agent compounds and combinations were determined by HCV RNA detection using quantitative RT-PCR, according to the manufacturer's instructions, with a TAQMAN® One-Step RT-PCR Master Mix Reagents Kit (Cat# AB 4309169, Applied Biosystems) on an ABI Model 7500 thermocycler. The TaqMan primers used for detecting and quantifying HCV RNA were obtained from Integrated DNA Technologies. HCV RNA was normalized to GAPDH RNA levels in drug-treated cells, which was detected and quantified using the Human GAPDH Endogenous Control Mix (Applied Biosystems, AB 4310884E). Total cellular RNA was purified from 96-well plates using the RNAqueous 96 kit (Ambion, Cat#AM1812). Chemical agent cytotoxicity was evaluated using an MTS assay according to the manufacturer's directions (Promega).
Since clinical drug resistance often develops in viral infections following single agent therapies, there is a need to assess the additive, antagonistic, or synergistic properties of combination therapies. We use the HCV replicon system to assess the potential use of the compound of the present invention or in combination therapies with Interferon alpha, cyclosporine analogs and inhibitors targeting other HCV proteins. The acute effects of a single or combinations of drugs are studied in the “Huh-luc/neo-ET” replicon with each chemical agent titrated in an X or Y direction in a 6 point two-fold dilution curve centered around the EC50 of each drug. Briefly, replicon cells are seeded at 7,000 cells per well in 90 ul DMEM (without phenol red, Invitrogen Cat.#31053-036) per well with 10% FCS, 1% non-essential amino acids, 1% of Glutamax and 1% of 100× penicillin/streptomycin and incubated overnight at 37° C., 5% CO2, 100% relative humidity. […]
A general note: A replicon is a self-replicating genome or part of one, used to study replication in cells.
As for `COC(=O)N[C@H](C(=O)N[C@H]1CCC[C@@H]1Nc1ncc(-c2ccc3cc(-c4c[nH]c([C@@H]5CCCN5C(=O)[C@@H](NC(=O)OC)C(C)C)n4)ccc3c2)cn1)C(C)C` (racemic) [373a and 373b], the EC50 was less than 1 nM.

For the compound `COC(=O)N[C@H](C(=O)N1CCC[C@H]1CNc1ncc(-c2ccc3cc(-c4c[nH]c([C@@H]5CCCN5C(=O)[C@@H](NC(=O)OC)C(C)C)n4)ccc3c2)cn1)C(C)C` [Example 83], the EC50 was greater than 10 nM.

Take `COC(=O)N[C@H](C(=O)N1CCC[C@H]1CNc1ncc2cc(-c3ccc(-c4c[nH]c([C@@H]5CCCN5C(=O)[C@@H](NC(=O)OC)C(C)C)n4)cc3)ccc2n1)C(C)C` [Example 294]: the concentration for a half-maximal effect (EC50) is less than 1 nM.

For `COC(=O)N[C@H](C(=O)N1CCC[C@H]1CNc1ccc(-c2ccc3cc(-c4c[nH]c([C@@H]5CCCN5C(=O)[C@@H](NC(=O)OC)C(C)C)n4)ccc3c2)cn1)C(C)C` [Example 296], the EC50 was less than 1 nM.

As to `COC(=O)N[C@H](C(=O)N1CCC[C@H]1CNc1nc2ccc(-c3ccc(-c4c[nH]c([C@@H]5CCCN5C(=O)[C@@H](NC(=O)OC)C(C)C)n4)cc3)cc2s1)C(C)C` [Example 305], the EC50 was less than 1 nM.

Turning to `COC(=O)N[C@H](C(=O)N1CCC[C@H]1CNc1ncc(C#Cc2ccc3nc([C@@H]4CCCN4C(=O)[C@@H](NC(=O)OC)C(C)C)[nH]c3c2)cn1)C(C)C` [Example 313], the EC50 was greater than 10 nM.

As to `COC(=O)N[C@H](C(=O)N1CCC[C@H]1CNc1ncc2cc(C#Cc3ccc4[nH]c([C@@H]5CCCN5C(=O)[C@@H](NC(=O)OC)C(C)C)nc4c3)ccc2n1)C(C)C` [Example 322], the EC50 was in the range of 1 to 10 nM.

For `COC(=O)N[C@H](C(=O)N1CCC[C@H]1CNc1ncc(-c2ccc(-c3cnc(NC[C@@H]4CCCN4C(=O)[C@@H](NC(=O)OC)C(C)C)nc3)cc2)cn1)C(C)C` [Example 370], the EC50 was greater than 10 nM.

With `COC(=O)N[C@H](C(=O)N1CCC[C@H]1CNc1nc2ccc(-c3ccc4nc(NC[C@@H]5CCCN5C(=O)[C@@H](NC(=O)OC)C(C)C)sc4c3)cc2s1)C(C)C` [Example 377], the EC50 is greater than 10 nM.

`COC(=O)N[C@H](C(=O)N1CCC(Nc2ncc(-c3ccc4cc(-c5c[nH]c([C@@H]6CCCN6C(=O)[C@@H](NC(=O)OC)C(C)C)n5)ccc4c3)cn2)C1)C(C)C` (stereo partly shown) [Example 382]: the EC50 lay within 1 to 10 nM.

On to `COC(=O)N[C@H](C(=O)N1CCC(Nc2ncc(-c3ccc(-c4c[nH]c([C@@H]5CCCN5C(=O)[C@@H](NC(=O)OC)C(C)C)n4)cc3)cn2)C1)C(C)C` (stereo partly shown) [Example 384], for which the EC50 lay in the range of 1 to 10 nM.

Regarding `COC(=O)N[C@H](C(=O)N1CCC[C@H]1CNc1nc2ccc(-c3ccc4cc(-c5c[nH]c([C@@H]6CCCN6C(=O)[C@@H](NC(=O)OC)C(C)C)n5)ccc4c3)cc2s1)C(C)C` [Example 386], the EC50 is less than 1 nM.

As to `CCC(CNc1ncc(-c2ccc3cc(-c4c[nH]c([C@@H]5CCCN5C(=O)[C@@H](NC(=O)OC)C(C)C)n4)ccc3c2)cn1)NC(=O)[C@@H](NC(=O)OC)C(C)C` (stereo partly shown) [Example 388], the EC50 is greater than 10 nM.

`CCC(CNc1ncc(-c2ccc3cc(-c4c[nH]c([C@@H]5CCCN5C(=O)[C@@H](NC(=O)OC)C(C)C)n4)ccc3c2)cn1)N(C)C(=O)[C@@H](NC(=O)OC)C(C)C` (stereo partly shown) [Example 390]: the EC50 lay in the range of 1 to 10 nM.

`COC(=O)N[C@H](C(=O)N1CCC[C@@H]1CNc1ncc(-c2ccc3cc(-c4cnc([C@@H]5CCCN5C(=O)[C@@H](NC(=O)OC)C(C)C)[nH]4)ccc3c2)cn1)C(C)C` [Example 393]: the EC50 lay in the range of 1 to 10 nM.

Take `COC(=O)N[C@H](C(=O)N1CCC[C@H]1CNc1ncc(C#Cc2ccc(-c3cnc([C@@H]4CCCN4C(=O)[C@@H](NC(=O)OC)C(C)C)[nH]3)cc2)cn1)C(C)C` [Example 394]: the EC50 was greater than 10 nM.
